# Measurements from patent publication US20240285576A1, “R-MDMA FOR TREATMENT OF PAIN” (Mind Medicine, Inc., priority 2023, published 2024).
# How the values were obtained:
# [1] = system: healthy volunteer population; assay: Subjective effects in humans (psychedelic experience questionnaires, 5D-ASC, VAS); format: in vivo
# Protocol: Doses of any of the compounds herein can be 20-300 mg. […] Compounds can be administered a single dose or multiple doses, up to three times per day. […] The compounds can be administered before, during, or after the individual has the sensation of pain.
# [2] = system: Mice; assay: Acute pain: mouse tail flick; settings: for MPE, tail flick: model of acute pain (FIG. 3)
smiles,measurement,setting,value
CN[C@@H](C)Cc1ccc2c(c1)OCO2 [S-MDMA],subjective stimulation (VAS),"[1]; 125 mg of S-MDMA vs 125 mg of R-MDMA, postulated",greater subjective stimulation
"CN1CC[C@]23c4c5ccc(O)c4O[C@H]2[C@@H](O)C=C[C@H]3[C@H]1C5 [morphine, reference compound]","MPE, tail flick",[2]; morphine 4 mg/kg SC,80%
CN[C@H](C)Cc1ccc2c(c1)OCO2 [R-MDMA],latency of the tail flick,"[2]; R-MDMA 17 and 30 mg/kg PO, 30, 60 and 90 minutes after administration, comparable to morphine (FIG. 2)",statistically significant increase
same,"MPE, tail flick",[2]; R-MDMA 17 and 30 mg/kg PO,60%
same,"% MPE (percent of maximal possible effect), tail flick","[2]; R-MDMA treated animals, 60 and 90 minutes post-treatment",significantly increased
same,subjective experience on standard psychedelic experience questionnaires,"[1]; R-MDMA 75 mg, 125 mg, 175 mg or 225 mg, compared to racemic MDMA",differentiated subjective experience
same,measures of emotional breakthrough,"[1]; R-MDMA 75 mg, 125 mg, 175 mg or 225 mg, healthy volunteer population",dose dependent changes
same,psychedelic-type effects (5D-ASC total OAV score),"[1]; R-MDMA 300 mg compared with S-MDMA (125 mg), expected",greater psychedelic-type effects
